Measured values from the NIST ThermoML archive (doi:10.1021/je700152c).

Test: molar heat capacity at saturation pressure

CCCCn1cc[n+](C)c1.Cc1ccc(S(=O)(=O)[O-])cc1 [1-butyl-3-methylimidazolium tosylate]
molar heat capacity [J/K/mol]
Conditions | Crystal 1 | Metastable crystal
205.31 K | – | 319.1
205.46 K | 296.26 | –
207.12 K | 298.09 | –
207.15 K | 298.12 | –
207.23 K | – | 320.66
207.42 K | 298.43 | –
209.08 K | 300.36 | –
209.12 K | 300.45 | –
209.16 K | – | 322.21
209.38 K | 300.6 | –
211.04 K | 302.62 | –
211.08 K | – | 323.45
211.09 K | 302.68 | –
211.34 K | 302.99 | –
213 K | 304.79 | 325
213.05 K | 304.92 | –
213.31 K | 305.26 | –
214.92 K | – | 326.24
214.96 K | 307.15 | –
215.01 K | 307.18 | –
215.27 K | 307.65 | –
216.84 K | – | 328.11
216.91 K | 309.57 | –
216.97 K | 309.61 | –
217.22 K | 309.92 | –
218.76 K | – | 329.66
218.87 K | 311.96 | –
218.93 K | 311.96 | –
219.18 K | 312.59 | –
220.68 K | – | 331.83
220.82 K | 314.45 | –
220.88 K | 314.45 | –
221.13 K | 314.76 | –
222.6 K | – | 333.69
222.77 K | 317.86 | –
222.83 K | 317.24 | –
223.07 K | 317.55 | –
224.51 K | – | 336.8
224.72 K | 321.28 | –
224.77 K | 321.9 | –
225.01 K | 321.59 | –
226.41 K | – | 340.21
226.65 K | 326.86 | –
226.7 K | 326.55 | –
226.94 K | 328.11 | –
228.3 K | – | 347.04
228.56 K | 332.14 | –
228.61 K | 331.83 | –
228.85 K | 333.69 | –
230.18 K | – | 352.94
230.47 K | 336.18 | –
230.52 K | 335.56 | –
230.75 K | 336.8 | –
232.06 K | – | 355.11
232.37 K | 339.9 | –
232.43 K | 338.97 | –
232.65 K | 340.21 | –
233.94 K | – | 356.97
234.27 K | 341.76 | –
234.33 K | 341.76 | –
234.55 K | 342.7 | –
235.82 K | – | 358.22
236.17 K | 343.94 | –
236.24 K | 343.01 | –
236.45 K | 344.25 | –
237.7 K | – | 359.46
238.07 K | 346.11 | –
238.14 K | 345.18 | –
238.35 K | 346.42 | –
239.58 K | – | 361.01
239.97 K | 348.28 | –
240.04 K | 347.35 | –
240.25 K | 348.9 | –
241.45 K | – | 362.87
241.87 K | 350.46 | –
241.94 K | 349.52 | –
242.14 K | 350.77 | –
243.33 K | – | 364.42
243.76 K | 352.32 | –
243.83 K | 351.7 | –
244.04 K | 352.94 | –
245.21 K | – | 365.98
245.66 K | 354.49 | –
245.73 K | 353.87 | –
245.93 K | 355.11 | –
247.08 K | – | 367.84
247.55 K | 356.97 | –
247.62 K | 356.04 | –
247.82 K | 357.29 | –
248.96 K | – | 369.39
249.44 K | 359.15 | –
249.51 K | 358.53 | –
249.71 K | 359.46 | –
250.83 K | – | 371.25
251.33 K | 361.32 | –
251.4 K | 360.39 | –
251.59 K | 361.63 | –
252.7 K | – | 372.81
253.22 K | 363.49 | –
253.29 K | 362.87 | –
253.47 K | 363.8 | –
254.58 K | – | 374.67
255.11 K | 365.67 | –
255.17 K | 364.74 | –
255.35 K | 365.98 | –
256.45 K | – | 376.53
256.99 K | 367.84 | –
257.06 K | 367.22 | –
257.23 K | 368.15 | –
258.32 K | – | 378.39
258.88 K | 370.01 | –
258.94 K | 369.08 | –
259.11 K | 370.32 | –
260.2 K | – | 380.26
260.77 K | 372.19 | –
260.82 K | 371.56 | –
261 K | 372.5 | –
262.07 K | – | 381.81
262.65 K | 374.36 | –
262.71 K | 373.43 | –
262.87 K | 374.67 | –
263.94 K | – | 383.36
264.53 K | 376.22 | –
264.59 K | 375.6 | –
264.75 K | 376.53 | –
265.82 K | – | 385.53
266.42 K | 378.39 | –
266.47 K | 377.46 | –
266.63 K | 378.39 | –
267.69 K | – | 387.4
268.31 K | 380.57 | –
268.36 K | 379.63 | –
268.52 K | 380.88 | –
269.56 K | – | 388.95
270.19 K | 382.43 | –
270.25 K | 381.81 | –
270.4 K | 382.74 | –
271.43 K | – | 391.12
272.08 K | 384.6 | –
272.14 K | 383.36 | –
272.29 K | 384.6 | –
273.3 K | – | 393.6
273.97 K | 386.46 | –
274.03 K | 385.53 | –
274.19 K | 386.46 | –
275.16 K | – | 396.09
275.87 K | 388.64 | –
275.92 K | 388.02 | –
276.08 K | 388.33 | –
277.01 K | – | 399.5
277.76 K | 391.12 | –
277.8 K | 390.5 | –
277.97 K | 390.81 | –
278.86 K | – | 403.54
279.64 K | 393.6 | –
279.67 K | 393.29 | –
279.85 K | 393.6 | –
280.7 K | – | 407.57
281.51 K | 396.71 | –
281.53 K | 397.02 | –
281.71 K | 397.02 | –
282.53 K | – | 410.68
